Paper PMC7366380, “Discovery of a Potent and Selective Covalent Inhibitor and Activity-Based Probe for the Deubiquitylating Enzyme UCHL1, with Antifibrotic Activity” (Journal of the American Chemical Society, 2020)
Values joined by “and” are separate entries in the source; they are usually repeats but may differ in a detail not shown here. Identical values can stand only once.

What was measured:
USP1 = USP1 (Homo sapiens, UniProt O94782); assay: biochemical
[1] = target: DUBs and other proteins in HEK293 cells (Homo sapiens, UniProt Q93009); assay: In-cell proteome-wide competitive ABPP, HEK293: other DUBs and proteins; conditions: replicates A-C; for Log2 reporter intensity values: USP7: competition with ABP 2, DMSO substract (FC); for Log2 reporter intensity values: USP7, DMSO subtracted
DUBs and other proteins in HEK293 cells (Homo sapiens, UniProt Q93009), sequence (Q93009 whole entry): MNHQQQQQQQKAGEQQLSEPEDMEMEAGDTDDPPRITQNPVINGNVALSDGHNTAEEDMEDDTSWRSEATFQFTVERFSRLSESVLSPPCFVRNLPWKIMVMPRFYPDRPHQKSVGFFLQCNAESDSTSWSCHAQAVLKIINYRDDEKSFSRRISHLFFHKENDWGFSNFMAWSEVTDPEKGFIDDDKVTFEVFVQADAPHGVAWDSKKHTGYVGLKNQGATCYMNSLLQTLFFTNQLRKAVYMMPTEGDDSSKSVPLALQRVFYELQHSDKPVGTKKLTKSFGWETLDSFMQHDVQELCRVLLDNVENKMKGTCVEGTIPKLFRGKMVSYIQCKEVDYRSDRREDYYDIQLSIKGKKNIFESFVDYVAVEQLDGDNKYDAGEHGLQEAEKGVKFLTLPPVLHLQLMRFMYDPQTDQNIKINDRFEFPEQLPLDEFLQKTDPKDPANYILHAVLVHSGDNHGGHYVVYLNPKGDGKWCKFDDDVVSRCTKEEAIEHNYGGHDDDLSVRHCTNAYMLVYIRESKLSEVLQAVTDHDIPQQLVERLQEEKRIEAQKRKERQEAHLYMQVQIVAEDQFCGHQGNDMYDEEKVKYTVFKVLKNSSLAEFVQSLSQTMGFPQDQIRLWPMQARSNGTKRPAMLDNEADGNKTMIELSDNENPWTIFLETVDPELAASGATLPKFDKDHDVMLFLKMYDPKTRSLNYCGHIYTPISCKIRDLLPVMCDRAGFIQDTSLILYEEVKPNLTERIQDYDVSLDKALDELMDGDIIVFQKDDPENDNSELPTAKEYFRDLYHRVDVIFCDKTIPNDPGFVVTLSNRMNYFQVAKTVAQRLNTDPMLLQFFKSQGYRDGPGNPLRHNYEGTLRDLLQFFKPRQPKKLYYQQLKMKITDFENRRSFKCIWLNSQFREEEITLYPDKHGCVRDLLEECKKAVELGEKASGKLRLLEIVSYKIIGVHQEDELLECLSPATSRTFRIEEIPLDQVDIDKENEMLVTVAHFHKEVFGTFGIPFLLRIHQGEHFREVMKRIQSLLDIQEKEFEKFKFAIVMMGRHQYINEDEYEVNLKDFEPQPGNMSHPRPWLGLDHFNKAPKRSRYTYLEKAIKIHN

[2] = target: T1, DUBs and other proteins in HEK293 cells (Homo sapiens, UniProt Q53GS9); assay: as above; conditions: replicates A-C; for Log2 reporter intensity values: USP39: competition with ABP 2, DMSO substract (FC); for Log2 reporter intensity values: USP39, DMSO subtracted
T1 sequence (Q53GS9 1-565): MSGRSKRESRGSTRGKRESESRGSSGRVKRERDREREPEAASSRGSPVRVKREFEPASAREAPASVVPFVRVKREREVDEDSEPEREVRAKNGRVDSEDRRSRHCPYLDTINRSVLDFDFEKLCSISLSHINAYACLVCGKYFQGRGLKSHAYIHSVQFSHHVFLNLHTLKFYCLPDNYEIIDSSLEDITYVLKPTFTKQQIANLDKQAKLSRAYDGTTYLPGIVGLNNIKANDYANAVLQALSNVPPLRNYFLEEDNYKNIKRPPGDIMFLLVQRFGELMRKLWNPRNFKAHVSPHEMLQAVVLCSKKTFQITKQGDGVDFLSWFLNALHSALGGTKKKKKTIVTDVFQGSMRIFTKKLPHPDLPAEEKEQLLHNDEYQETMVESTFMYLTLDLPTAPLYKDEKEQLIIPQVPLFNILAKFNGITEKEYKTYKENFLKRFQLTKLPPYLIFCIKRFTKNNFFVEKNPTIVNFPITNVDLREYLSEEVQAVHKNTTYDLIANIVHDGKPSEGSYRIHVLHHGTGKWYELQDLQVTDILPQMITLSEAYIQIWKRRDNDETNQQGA

[3] = target: DUBs and other proteins in HEK293 cells (Homo sapiens, UniProt Q9Y5T5); assay: as above; conditions: replicates A-C; for Log2 reporter intensity values: USP16: competition with ABP 2, DMSO substract (FC); for Log2 reporter intensity values: USP16, DMSO subtracted
DUBs and other proteins in HEK293 cells (Homo sapiens, UniProt Q9Y5T5), sequence (Q9Y5T5 whole entry): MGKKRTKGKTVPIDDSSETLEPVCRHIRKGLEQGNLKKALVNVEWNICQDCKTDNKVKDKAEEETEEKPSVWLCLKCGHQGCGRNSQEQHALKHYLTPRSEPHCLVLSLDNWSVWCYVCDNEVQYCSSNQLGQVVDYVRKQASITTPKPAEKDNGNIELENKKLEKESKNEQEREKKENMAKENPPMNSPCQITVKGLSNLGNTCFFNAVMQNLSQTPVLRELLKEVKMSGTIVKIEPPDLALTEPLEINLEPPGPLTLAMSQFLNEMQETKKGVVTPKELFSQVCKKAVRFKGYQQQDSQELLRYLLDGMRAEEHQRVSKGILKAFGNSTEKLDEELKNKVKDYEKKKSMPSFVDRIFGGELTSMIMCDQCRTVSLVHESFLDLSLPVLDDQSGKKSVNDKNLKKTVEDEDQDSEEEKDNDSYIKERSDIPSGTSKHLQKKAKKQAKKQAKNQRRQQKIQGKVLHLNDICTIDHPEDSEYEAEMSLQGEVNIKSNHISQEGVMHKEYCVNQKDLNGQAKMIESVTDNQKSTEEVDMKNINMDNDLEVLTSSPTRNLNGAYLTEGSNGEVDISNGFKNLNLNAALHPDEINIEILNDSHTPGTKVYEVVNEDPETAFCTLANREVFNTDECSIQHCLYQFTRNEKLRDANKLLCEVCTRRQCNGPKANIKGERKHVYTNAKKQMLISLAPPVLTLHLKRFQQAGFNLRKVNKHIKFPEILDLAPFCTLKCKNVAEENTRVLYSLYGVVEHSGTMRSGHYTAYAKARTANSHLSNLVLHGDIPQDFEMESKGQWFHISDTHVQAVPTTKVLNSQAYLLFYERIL

[4] = target: DUBs and other proteins in HEK293 cells (Homo sapiens, UniProt Q7L5N1); assay: as above; conditions: for Log2 reporter intensity values, COPS6: TMT replicates; for Log2 reporter intensity values: COPS6: competition with ABP 2, DMSO substract (FC); for Log2 reporter intensity values: COPS6 / Log2 reporter intensity values: replicates A-C; for Log2 t-test Difference / Log2 reporter intensity values: COPS6
DUBs and other proteins in HEK293 cells (Homo sapiens, UniProt Q7L5N1), sequence (Q7L5N1 whole entry): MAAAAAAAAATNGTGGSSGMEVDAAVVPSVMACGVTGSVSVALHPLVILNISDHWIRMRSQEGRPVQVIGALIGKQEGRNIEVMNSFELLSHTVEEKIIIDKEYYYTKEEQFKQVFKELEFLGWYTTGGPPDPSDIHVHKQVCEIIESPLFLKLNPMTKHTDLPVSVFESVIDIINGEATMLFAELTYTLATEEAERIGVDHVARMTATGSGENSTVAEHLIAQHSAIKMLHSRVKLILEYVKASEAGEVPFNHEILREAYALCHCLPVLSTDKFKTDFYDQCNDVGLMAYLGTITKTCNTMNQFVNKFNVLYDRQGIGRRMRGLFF

[5] = target: DUBs and other proteins in HEK293 cells (Homo sapiens, UniProt Q96BN8); assay: as above; conditions: replicates A-C; for Log2 reporter intensity values: OTULIN: competition with ABP 2, DMSO substract (FC); for Log2 reporter intensity values: OTULIN, DMSO subtracted
DUBs and other proteins in HEK293 cells (Homo sapiens, UniProt Q96BN8), sequence (Q96BN8 whole entry): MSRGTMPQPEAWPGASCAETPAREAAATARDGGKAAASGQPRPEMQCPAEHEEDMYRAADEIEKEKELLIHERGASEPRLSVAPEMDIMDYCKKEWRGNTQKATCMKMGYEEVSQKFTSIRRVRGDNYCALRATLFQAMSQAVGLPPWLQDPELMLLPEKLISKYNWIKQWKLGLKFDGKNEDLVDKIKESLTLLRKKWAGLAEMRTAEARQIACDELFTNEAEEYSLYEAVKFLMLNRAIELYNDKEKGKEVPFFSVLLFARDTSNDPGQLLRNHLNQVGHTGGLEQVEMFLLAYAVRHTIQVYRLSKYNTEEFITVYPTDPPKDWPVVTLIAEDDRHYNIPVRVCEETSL

[6] = target: DUBs and other proteins in HEK293 cells (Homo sapiens, UniProt Q14694); assay: as above; conditions: replicates A-C; for Log2 reporter intensity values: USP10: competition with ABP 2, DMSO substract (FC); for Log2 reporter intensity values: USP10, DMSO subtracted
DUBs and other proteins in HEK293 cells (Homo sapiens, UniProt Q14694), sequence (Q14694 whole entry): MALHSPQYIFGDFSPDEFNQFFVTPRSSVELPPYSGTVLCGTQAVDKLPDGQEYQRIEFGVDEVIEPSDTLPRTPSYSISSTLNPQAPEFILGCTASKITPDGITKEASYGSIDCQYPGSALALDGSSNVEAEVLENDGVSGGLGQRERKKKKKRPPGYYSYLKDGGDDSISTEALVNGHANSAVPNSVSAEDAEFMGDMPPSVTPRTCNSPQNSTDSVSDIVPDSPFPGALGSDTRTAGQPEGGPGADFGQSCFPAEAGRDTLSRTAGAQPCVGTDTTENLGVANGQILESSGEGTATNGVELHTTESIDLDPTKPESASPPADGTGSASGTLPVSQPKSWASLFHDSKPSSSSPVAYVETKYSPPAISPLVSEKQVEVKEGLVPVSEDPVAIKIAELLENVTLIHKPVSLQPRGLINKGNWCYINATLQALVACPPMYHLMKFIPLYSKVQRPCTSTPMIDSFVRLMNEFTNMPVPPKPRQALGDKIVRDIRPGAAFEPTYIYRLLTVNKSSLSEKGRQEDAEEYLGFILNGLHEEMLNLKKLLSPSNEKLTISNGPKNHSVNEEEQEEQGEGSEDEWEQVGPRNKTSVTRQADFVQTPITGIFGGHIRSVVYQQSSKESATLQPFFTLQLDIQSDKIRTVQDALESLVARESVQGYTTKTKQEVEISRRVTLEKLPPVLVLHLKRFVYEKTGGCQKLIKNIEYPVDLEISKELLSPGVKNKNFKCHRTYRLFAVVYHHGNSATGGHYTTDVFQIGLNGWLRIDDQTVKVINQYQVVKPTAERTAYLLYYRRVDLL

[7] = target: DUBs and other proteins in HEK293 cells (Homo sapiens, UniProt P51784); assay: as above; conditions: replicates A-C; for Log2 reporter intensity values: USP11: competition with ABP 2, DMSO substract (FC); for Log2 reporter intensity values: USP11, DMSO subtracted
DUBs and other proteins in HEK293 cells (Homo sapiens, UniProt P51784), sequence (P51784 whole entry): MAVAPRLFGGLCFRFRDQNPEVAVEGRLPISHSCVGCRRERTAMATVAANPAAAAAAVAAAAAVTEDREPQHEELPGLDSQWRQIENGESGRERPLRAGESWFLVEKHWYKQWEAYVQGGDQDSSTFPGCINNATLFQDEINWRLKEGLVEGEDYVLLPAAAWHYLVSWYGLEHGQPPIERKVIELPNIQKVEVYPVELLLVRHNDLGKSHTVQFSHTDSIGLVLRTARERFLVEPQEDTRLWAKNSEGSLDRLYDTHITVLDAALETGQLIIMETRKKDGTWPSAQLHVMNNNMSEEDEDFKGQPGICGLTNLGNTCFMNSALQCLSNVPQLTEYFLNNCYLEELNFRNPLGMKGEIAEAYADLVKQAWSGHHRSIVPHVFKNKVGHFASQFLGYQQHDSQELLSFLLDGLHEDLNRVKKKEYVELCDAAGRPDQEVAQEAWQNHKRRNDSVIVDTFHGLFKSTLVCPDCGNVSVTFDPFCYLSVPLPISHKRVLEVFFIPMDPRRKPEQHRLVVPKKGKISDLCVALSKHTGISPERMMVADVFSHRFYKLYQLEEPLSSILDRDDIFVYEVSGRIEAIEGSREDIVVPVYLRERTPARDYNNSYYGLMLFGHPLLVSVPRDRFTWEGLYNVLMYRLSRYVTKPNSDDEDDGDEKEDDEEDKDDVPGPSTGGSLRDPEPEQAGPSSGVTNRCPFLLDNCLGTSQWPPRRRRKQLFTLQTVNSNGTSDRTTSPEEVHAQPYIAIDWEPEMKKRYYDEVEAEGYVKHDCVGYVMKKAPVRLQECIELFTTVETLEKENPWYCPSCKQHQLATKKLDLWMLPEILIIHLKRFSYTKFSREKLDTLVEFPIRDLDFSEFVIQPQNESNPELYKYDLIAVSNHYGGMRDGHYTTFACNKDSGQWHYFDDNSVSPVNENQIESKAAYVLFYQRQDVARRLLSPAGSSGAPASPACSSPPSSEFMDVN

[8] = target: DUBs and other proteins in HEK293 cells (Homo sapiens, UniProt Q96FW1); assay: as above; conditions: replicates A-C; for Log2 reporter intensity values: OTUB1: competition with ABP 2, DMSO substract (FC); for Log2 reporter intensity values: OTUB1, DMSO subtracted
DUBs and other proteins in HEK293 cells (Homo sapiens, UniProt Q96FW1), sequence (Q96FW1 whole entry): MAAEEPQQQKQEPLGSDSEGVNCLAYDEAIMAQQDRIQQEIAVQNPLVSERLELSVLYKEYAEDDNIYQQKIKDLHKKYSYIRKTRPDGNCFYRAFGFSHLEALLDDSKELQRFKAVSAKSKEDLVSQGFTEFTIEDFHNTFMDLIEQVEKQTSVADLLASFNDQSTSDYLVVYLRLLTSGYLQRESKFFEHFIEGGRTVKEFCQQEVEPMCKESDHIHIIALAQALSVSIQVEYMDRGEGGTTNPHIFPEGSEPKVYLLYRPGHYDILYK

N#CN1CCC[C@@H]1C(=O)N1CCc2c(-c3c[nH]c4ncccc34)cccc21 [Compound 3]
IC50 (USP1): > 10 µM
Log2 reporter intensity values: USP7 ([1]; 3 at 1 μM): 1.005 and 1.034 and 1.047
Log2 reporter intensity values: USP7 ([1]; 3 at 4 μM): 0.9485 and 1.006 and 0.9977
Log2 reporter intensity values ([1]; 3_1 μM): 0.004952 and 0.03394 and 0.04709
Log2 reporter intensity values ([1]; 3_4 μM): -0.05181 and 0.006115 and -0.002591
Log2 reporter intensity values ([1]; 3 at 1 μM): 0.007531 and 0.04854 and 0.06677
Log2 reporter intensity values ([1]; 3 at 4 μM): -0.07633 and 0.0092 and -0.003335
Log2 reporter intensity values: USP39 ([2]; 3 at 1 μM): 0.9789 and 0.9555 and 0.9911
Log2 reporter intensity values: USP39 ([2]; 3 at 4 μM): 0.9367 and 1.076 and 1.058
Log2 reporter intensity values ([2]; 3_1 μM): -0.0217 and -0.04512 and -0.009501
Log2 reporter intensity values ([2]; 3_4 μM): -0.06394 and 0.07549 and 0.05768
Log2 reporter intensity values ([2]; 3 at 1 μM): -0.03075 and -0.0657 and -0.01288
Log2 reporter intensity values ([2]; 3 at 4 μM): -0.09439 and 0.1058 and 0.08174
Log2 reporter intensity values: USP16 ([3]; 3 at 1 μM): 1.04 and 1.242 and 1.156
Log2 reporter intensity values: USP16 ([3]; 3 at 4 μM): 1.088 and 0.9104 and 1.039
Log2 reporter intensity values ([3]; 3_1 μM): 0.03732 and 0.2403 and 0.1536
Log2 reporter intensity values ([3]; 3_4 μM): 0.08611 and -0.09176 and 0.0368
Log2 reporter intensity values ([3]; 3 at 1 μM): 0.0559 and 0.3132 and 0.2089
Log2 reporter intensity values ([3]; 3 at 4 μM): 0.1221 and -0.1354 and 0.05518
Log2 reporter intensity values, COPS6 ([4]; 1 μM 3 (60 min) + 20 nM ABP 2 (10 min), All values): 0.04099 and 0.07831 and 0.06581
Log2 reporter intensity values, COPS6 ([4]; 1 μM 3 (60 min) + 20 nM ABP 2 (10 min), DMSO subtracted): 0.02857 and 0.06589 and 0.0534
Log2 reporter intensity values, COPS6 ([4]; 4 μM 3 (60 min) + 20 nM ABP 2 (10 min), All values): -0.1551 and -0.06324 and -0.1331
Log2 reporter intensity values, COPS6 ([4]; 4 μM 3 (60 min) + 20 nM ABP 2 (10 min), DMSO subtracted): -0.1675 and -0.07565 and -0.1455
Log2 reporter intensity values: COPS6 ([4]; 3 at 1 μM): 1.02 and 1.047 and 1.038
Log2 reporter intensity values: COPS6 ([4]; 3 at 4 μM): 0.8904 and 0.9489 and 0.9041
Log2 t-test Difference ([4]; 3 - 1 μM): 0.00565
Log2 t-test Difference ([4]; 3 - 4 μM): -0.1732
Log2 reporter intensity values ([4]; 3_1 μM, DMSO subtracted): 0.01989 and 0.04662 and 0.0376
Log2 reporter intensity values ([4]; 3_4 μM, DMSO subtracted): -0.1098 and -0.0512 and -0.09603
Log2 reporter intensity values ([4]; 3 at 1 μM, DMSO subtracted): 0.02857 and 0.06589 and 0.0534
Log2 reporter intensity values ([4]; 3 at 4 μM, DMSO subtracted): -0.1675 and -0.07565 and -0.1455
Log2 reporter intensity values: OTULIN ([5]; 3 at 1 μM): 1.194 and 0.9889 and 0.9216
Log2 reporter intensity values: OTULIN ([5]; 3 at 4 μM): 0.8963 and 0.9821 and 1.002
Log2 reporter intensity values ([5]; 3_1 μM): 0.1933 and -0.01163 and -0.07888
Log2 reporter intensity values ([5]; 3_4 μM): -0.1043 and -0.01848 and 0.001875
Log2 reporter intensity values ([5]; 3 at 1 μM): 0.2556 and -0.01611 and -0.1177
Log2 reporter intensity values ([5]; 3 at 4 μM): -0.158 and -0.02613 and 0.003463
Log2 reporter intensity values: USP10 ([6]; 3 at 1 μM): 0.9243 and 0.9306 and 0.9846
Log2 reporter intensity values: USP10 ([6]; 3 at 4 μM): 0.9265 and 0.935 and 0.9597
Log2 reporter intensity values ([6]; 3_1 μM): -0.07662 and -0.07034 and -0.01633
Log2 reporter intensity values ([6]; 3_4 μM): -0.07444 and -0.066 and -0.04125
Log2 reporter intensity values ([6]; 3 at 1 μM): -0.1135 and -0.1037 and -0.02233
Log2 reporter intensity values ([6]; 3 at 4 μM): -0.1101 and -0.09701 and -0.05932
Log2 reporter intensity values: USP11 ([7]; 3 at 1 μM): 1.117 and 1.058 and 1.05
Log2 reporter intensity values: USP11 ([7]; 3 at 4 μM): 0.8158 and 0.9889 and 0.9502
Log2 reporter intensity values ([7]; 3_1 μM): 0.1164 and 0.05763 and 0.04999
Log2 reporter intensity values ([7]; 3_4 μM): -0.1845 and -0.01139 and -0.05014
Log2 reporter intensity values ([7]; 3 at 1 μM): 0.1593 and 0.08129 and 0.07083
Log2 reporter intensity values ([7]; 3 at 4 μM): -0.2937 and -0.01604 and -0.0737
Log2 reporter intensity values: OTUB1 ([8]; 3 at 1 μM): 0.9728 and 1.005 and 0.986
Log2 reporter intensity values: OTUB1 ([8]; 3 at 4 μM): 1.016 and 1.059 and 1.053
Log2 reporter intensity values ([8]; 3_1 μM): -0.02736 and 0.004799 and -0.01417
Log2 reporter intensity values ([8]; 3_4 μM): 0.01602 and 0.05888 and 0.05243
Log2 reporter intensity values ([8]; 3 at 1 μM): -0.03984 and 0.007079 and -0.02041
Log2 reporter intensity values ([8]; 3 at 4 μM): 0.0231 and 0.08271 and 0.07389
